pEC50: −log10 of the molar value.
Columns and labels:
JEG-3 cells [1] = conditions: Biol. Reprod. (2007) 76: 203-10; cited from earlier work
JEG-3 cells [2] = experiment: [3H]-thymidine incorporation by JEG-3 cells (JEG-3 protocol); format: cell-based; conditions: FIG. 5
Experimental: In JEG-3 cells (choriocarcinoma cell line) leptin is able to stimulate proliferation up to 3 fold (Biol. Reprod. (2007) 76: 203-10). […] The radioactivity incorporated by the cells is an index of their proliferative activity and is measured in counts per minute (CPM) with a liquid scintillation beta counter.
This finding can be applied to test whether a compound is able to either reproduce the effect of leptin on cell proliferation (leptin receptor agonist mimetic) (i.e., a given compound will cause an increase in incorporated [^3H]-Thymidine by the cells) or to inhibit the effect of leptin (antagonistic effect) by preventing the leptin-mediated increase in [^3H]-thymidine incorporation.
This approach has the advantage of using a non-recombinant system and has reasonable reproducibility and robustness.

Leptin: hormone synthesized in fat cells that is believed to act in the hypothalamus to reduce food intake and body weight
stimulation of proliferation (JEG-3 cells [1]): up to 3 fold | pEC50 (JEG-3 cells [2]; JEG-3 cells (choriocarcinoma cell line), read-out: EC50 of concentration-dependent increase in [3H]-thymidine incorporation): 8.68 | concentration giving maximal effect on [3H]-thymidine incorporation (JEG-3 cells [2]; JEG-3 cells): 100 nM
